Type in all cases: cell-based
One test has as its target T1, AKT2 (Homo sapiens, UniProt P31751).
T1 construct: expressed in transfected cells; host or cells: HEK293
Nature of the test: Live cell AKT2 target engagement by NanoBRET competitive probe displacement. The conditions noted are these: HEK293 cells transfected with kinase-NanoLuciferase fusion, 2 h at 37° C. On the procedure: (§1) Determining Live Cell AKT1 E17K, AKT1 WT, and AKT2 Target Engagement by NanoBRET Competitive Probe Displacement.
(§2) Live cell target engagement assays were performed as described (Vasta, J. D. et al. Cell Chem Biol 2018, 25(11), 206-214). Briefly, HEK293 cells were transfected with plasmids encoding kinase-NanoLuciferase fusion proteins overnight. Cells were then treated with serial dilutions of compound and an ˜EC50 concentration of fluorescently-tagged ATP-competitive tracer (Promega). After incubation for 2 h at 37° C., luciferase substrate and extracellular luciferase inhibitor were added to all wells, and luminescent intensity at 460 nm and 600 nm were measured on a multimode plate-reader. The ratio of E600/E460 was calculated to give the tracer engagement signal (BRET). IC50 values were calculated by fitting BRET values to a log(inhibitor) vs. response Hill equation.
Background: Bioluminescence resonance energy transfer reports proximity on the nanometre scale.

The target of a further test is T2, AKT1 E17K (Homo sapiens, UniProt P31749, E17K).
T2 construct: expressed in transfected cells; host or cells: HEK293
T2 sequence (P31749 whole entry E17K): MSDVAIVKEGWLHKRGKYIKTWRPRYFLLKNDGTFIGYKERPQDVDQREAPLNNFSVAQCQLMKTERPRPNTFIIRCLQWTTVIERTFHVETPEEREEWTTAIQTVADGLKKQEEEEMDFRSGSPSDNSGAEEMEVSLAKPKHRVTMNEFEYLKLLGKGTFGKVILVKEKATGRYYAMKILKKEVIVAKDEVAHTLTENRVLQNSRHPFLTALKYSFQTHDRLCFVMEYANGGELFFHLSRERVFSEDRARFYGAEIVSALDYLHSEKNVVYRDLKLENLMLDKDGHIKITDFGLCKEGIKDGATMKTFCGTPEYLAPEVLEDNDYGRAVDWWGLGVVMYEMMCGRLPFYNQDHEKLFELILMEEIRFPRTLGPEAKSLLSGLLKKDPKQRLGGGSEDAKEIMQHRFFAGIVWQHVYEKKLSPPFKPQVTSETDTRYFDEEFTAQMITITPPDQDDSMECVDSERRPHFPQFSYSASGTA
In words: Live cell AKT1 E17K target engagement by NanoBRET competitive probe displacement. Conditions: HEK293 cells transfected with kinase-NanoLuciferase fusion, 2 h at 37° C. On the procedure: as §1, §2

Test [1] concerns LAPC4 prostate cancer cells. In words: Antiproliferative effects in LAPC4 cells (CellTiter Glo). The conditions noted are these: LAPC4 cells (AKT1 E17K allele), read-out: LAPC4 proliferation IC50. On the procedure: Antiproliferative Effects in LAPC4 Cells.
LAPC4 prostate cancer cells (Klein, K. A. et al. Nat Med 1997, 3, 402-408), which express the AKT1 E17K allele, were grown in IMDM media (Hyclone) supplemented with 12% FBS+1% P/S. To assess compound effects on growth, 1,000 cells/well were seeded in 384 well assay plates, incubated with compound dilutions dissolved in DMSO. After 72 h, intracellular ATP content was assessed with CellTiter Glo reagent (Promega) according to the manufacturer's instructions. IC50 values were calculated by fitting luminescence values to a log(inhibitor) vs. response Hill equation.
(ATP-based viability assays read luminescence as a measure of living cells.)

The target in the next test is T3, AKT1 WT (Homo sapiens, UniProt P31749).
T3 construct: expressed in transfected cells; host or cells: HEK293
T3 sequence (P31749 whole entry): as the sequence (P31749 whole entry E17K) above, with K17E counted along it
Nature of the test: Live cell AKT1 WT target engagement by NanoBRET competitive probe displacement. Conditions: HEK293 cells transfected with kinase-NanoLuciferase fusion, 2 h at 37° C. On the procedure: as §1, §2

The structures appear in SMILES notation. Read-outs that look alike come from different tables or passages of the source.

T1 sequence (P31751 whole entry): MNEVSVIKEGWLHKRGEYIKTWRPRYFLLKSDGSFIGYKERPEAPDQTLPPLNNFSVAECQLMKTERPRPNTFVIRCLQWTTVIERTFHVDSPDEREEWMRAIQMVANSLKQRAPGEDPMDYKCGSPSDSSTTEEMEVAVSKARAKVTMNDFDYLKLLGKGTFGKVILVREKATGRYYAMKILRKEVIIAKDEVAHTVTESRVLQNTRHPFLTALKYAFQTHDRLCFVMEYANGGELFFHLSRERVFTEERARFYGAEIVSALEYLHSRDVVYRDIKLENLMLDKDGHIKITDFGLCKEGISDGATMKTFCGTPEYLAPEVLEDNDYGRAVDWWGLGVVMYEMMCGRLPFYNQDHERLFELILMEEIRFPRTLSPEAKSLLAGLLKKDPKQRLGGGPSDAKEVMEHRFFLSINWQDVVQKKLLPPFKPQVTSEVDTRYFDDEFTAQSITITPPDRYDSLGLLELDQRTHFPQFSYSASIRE

For the molecule `C=CC(=O)N1CCC(N[C@@H]2c3ccc(-n4c(-c5ccccc5)nc5ccc(-n6ccc(F)n6)nc54)cc3CC2F)CC1` (stereo partly drawn) [Example 332, 1-(4-(((1R,2*)-2-fluoro-5-(5-(3-fluoro-1H-pyrazol-1-yl)-2-phenyl-3H-imidazo[4,5-b]pyridin-3-yl)-2,3-dihydro-1H-inden-1-yl)amino)piperidin-1-yl)prop-2-en-1-one], the IC50 at AKT2 is 481 nM; at AKT1 E17K, 27.9 nM.
`C=CC(=O)N1C[C@H]2COC[C@@H](C1)C2N[C@H]1CCc2cc(-n3c(-c4cccnc4N)nc4ccc(C5CC5)nc43)ccc21` (single isomer, unassigned) [Example 172, 1-((1R,5S,9*)-9-(((S)-5-(2-(2-aminopyridin-3-yl)-5-cyclopropyl-3H-imidazo[4,5-b]pyridin-3-yl)-2,3-dihydro-1H-inden-1-yl)amino)-3-oxa-7-azabicyclo[3.3.1]nonan-7-yl)prop-2-en-1-one]: the IC50 came to 510 nM in test [1] (72 h), 211 nM at AKT2 and 50.9 nM on AKT1 E17K.
Consider `C=CC(=O)N1CCC(N[C@H]2CCc3cc(-n4c(-c5cccnc5N)nc5ccc(-n6cccn6)nc54)ccc32)CC1CC#N` (single isomer, unassigned) [Example 339, 2-((2*,4*)-1-acryloyl-4-(((S)-5-(2-(2-aminopyridin-3-yl)-5-(1H-pyrazol-1-yl)-3H-imidazo[4,5-b]pyridin-3-yl)-2,3-dihydro-1H-inden-1-yl)amino)piperidin-2-yl)acetonitrile], for which the IC50 at AKT2 came to 78.8 nM; at AKT1 E17K, 32.7 nM.
Taken in the same sequence, the figures for `C=CC(=O)N1CCC(N[C@@H]2c3c(F)cc(-n4c(-c5cccnc5N)nc5ccc(-n6cccn6)nc54)cc3CC2F)CC1` (single isomer, unassigned) [Example 342, 1-(4-(((1R,2*)-5-(2-(2-aminopyridin-3-yl)-5-(1H-pyrazol-1-yl)-3H-imidazo[4,5-b]pyridin-3-yl)-2,7-difluoro-2,3-dihydro-1H-inden-1-yl)amino)piperidin-1-yl)prop-2-en-1-one] were 194 nM and 23.9 nM.
For `C=CC(=O)N1CCC(N[C@@H]2c3ccc(-n4c(-c5ccccc5F)nc5ccc(-n6cccn6)nc54)cc3CC2F)C[C@H]1C` (single isomer, unassigned) [Example 319, 1-((2R,4*)-4-(((1R,2*)-2-fluoro-5-(2-(2-fluorophenyl)-5-(1H-pyrazol-1-yl)-3H-imidazo[4,5-b]pyridin-3-yl)-2,3-dihydro-1H-inden-1-yl)amino)-2-methylpiperidin-1-yl)prop-2-en-1-one], the IC50 in test [1] (72 h) is 1600 nM; at AKT2, 301 nM; on AKT1 E17K, 49.6 nM.
In the case of `C=CC(=O)N1CCC(N[C@@H]2c3ccc(-n4c(-c5ccccc5)nc5ccc(-n6cccn6)nc54)cc3CC2F)CC1` (single isomer, unassigned) [Example 249, 1-(4-(((1R,2*)-2-fluoro-5-(2-phenyl-5-(1H-pyrazol-1-yl)-3H-imidazo[4,5-b]pyridin-3-yl)-2,3-dihydro-1H-inden-1-yl)amino)piperidin-1-yl)prop-2-en-1-one], the IC50 is 614 nM in test [1] (Homo sapiens, LAPC4, 72 h); 143 nM at AKT2; 12.6 nM on AKT1 E17K.
On to `C=CC(=O)N1CCC(N[C@@H]2c3ccc(-n4c(-c5ccccc5)nc5ccc(-n6cccn6)nc54)cc3CC2F)CC1C(F)F` (single isomer, unassigned) [Example 328, 1-((2*,4*)-2-(difluoromethyl)-4-(((1R,2*)-2-fluoro-5-(2-phenyl-5-(1H-pyrazol-1-yl)-3H-imidazo[4,5-b]pyridin-3-yl)-2,3-dihydro-1H-inden-1-yl)amino)piperidin-1-yl)prop-2-en-1-one], for which the IC50 came to 90.3 nM at AKT2 and 17.7 nM at AKT1 E17K.
Consider `C=CC(=O)N1CCC(N[C@H]2CCc3cc(-n4c(-c5cccnc5N)nc5ccc(C(C)C)nc54)ccc32)CC1` [Example 242, 1-(4-{[(1S)-5-[2-(2-aminopyridin-3-yl)-5-isopropylimidazo[4,5-b]pyridin-3-yl]-2,3-dihydro-1H-inden-1-yl]amino}piperidin-1-yl)prop-2-en-1-one], for which the IC50 was found to be 756 nM in test [1] (Homo sapiens, LAPC4, 72 h); 1430 nM at AKT1 WT; 30.4 nM at AKT1 E17K.
In the case of `C=CC(=O)N1CCN(N(C)C2CCc3cc(-n4c(-c5cccnc5N)nc5ccc(-n6cccn6)nc54)ccc32)CC1` (single isomer, unassigned) [Example 179, 1-(4-{[(1*)-5-[2-(2-aminopyridin-3-yl)-5-(pyrazol-1-yl)imidazo[4,5-b]pyridin-3-yl]-2,3-dihydro-1H-inden-1-yl](methyl)amino}piperazin-1-yl)prop-2-en-1-one], the values for the IC50 (in test [1] (72 h); at AKT1 WT; at AKT1 E17K) were 3520 nM, 2890 nM and 203 nM, respectively.
Turning to `C=CC(=O)N1CCC(N[C@@H]2c3ccc(-n4c(-c5cccnc5N)nc5ccc(-n6cccn6)nc54)cc3CC2F)CC1C(F)F` (single isomer, unassigned) [Example 301, 1-((2*,4*)-4-(((1R,2*)-5-(2-(2-aminopyridin-3-yl)-5-(1H-pyrazol-1-yl)-3H-imidazo[4,5-b]pyridin-3-yl)-2-fluoro-2,3-dihydro-1H-inden-1-yl)amino)-2-(difluoromethyl)piperidin-1-yl)prop-2-en-1-one], the IC50 in test [1] (72 h) was found to be 172 nM; at AKT1 WT it was 105 nM; at AKT1 E17K, 8.86 nM.
Take `C=CC(=O)N1CCC(NC2CCc3cc(-n4c(-c5cccnc5N)nc5ccc(C(F)F)nc54)ccc32)CC1` (stereo in doubt) [Example 196, 1-(4-{[(1R)-5-[2-(2-aminopyridin-3-yl)-5-(difluoromethyl)imidazo[4,5-b]pyridin-3-yl]-?3-dihydro-1H-inden-1-yl]amino}piperidin-1-yl)prop-2-en-1-one]: the IC50 in test [1] (Homo sapiens, LAPC4, 72 h) was 1210 nM; at AKT1 WT it was 1990 nM; at AKT1 E17K, 96.6 nM.
Take `C=CC(=O)N1CCC(N[C@H]2CCc3cc(-n4c(-c5cccnc5N)nc5cc(-c6cccnc6)cnc54)ccc32)CC1` [Example 190, (S)-1-(4-((5-(2-(2-aminopyridin-3-yl)-6-(pyridin-3-yl)-3H-imidazo[4,5-b]pyridin-3-yl)-2,3-dihydro-1H-inden-1-yl)amino)piperidin-1-yl)prop-2-en-1-one]: the IC50 was 1320 nM in test [1] (Homo sapiens, LAPC4, 72 h); 735 nM on AKT1 WT; 99.4 nM at AKT1 E17K.
As for `C=CC(=O)N1CCC(N[C@H]2CCc3cc(-n4c(-c5cccnc5N)nc5cc(-n6cccn6)cnc54)ccc32)CC1` [Example 217, 1-(4-{[(1S)-5-[2-(2-aminopyridin-3-yl)-6-(pyrazol-1-yl)imidazo[4,5-b]pyridin-3-yl]-2,3-dihydro-1H-inden-1-yl]amino}piperidin-1-yl)prop-2-en-1-one], the IC50 in test [1] (Homo sapiens, LAPC4, 72 h) came to 3470 nM; on AKT1 WT it was 1870 nM; on AKT1 E17K, 321 nM.
On to `C=CC(=O)N1CCC(N[C@H]2CCc3cc(-n4c(-c5cccnc5N)nc5ccc(-n6cccn6)nc54)ccc32)C[C@@H]1C(F)F` (single isomer, unassigned) [Example 213, 1-((2R,4*)-4-(((S)-5-(2-(2-aminopyridin-3-yl)-5-(1H-pyrazol-1-yl)-3H-imidazo[4,5-b]pyridin-3-yl)-2,3-dihydro-1H-inden-1-yl)amino)-2-(difluoromethyl)piperidin-1-yl)prop-2-en-1-one], for which the figures for the IC50 (in test [1] (72 h); on AKT1 WT; on AKT1 E17K) were 9.69 nM, 13.8 nM and 4.87 nM, respectively.
As to `C=CC(=O)N1CCC(N[C@H]2CCc3cc(-n4c(-c5cccnc5N)nc5cc(-c6ccncc6)cnc54)ccc32)CC1` [Example 191, (S)-1-(4-((5-(2-(2-aminopyridin-3-yl)-6-(pyridin-4-yl)-3H-imidazo[4,5-b]pyridin-3-yl)-2,3-dihydro-1H-inden-1-yl)amino)piperidin-1-yl)prop-2-en-1-one], the IC50 in test [1] (Homo sapiens, LAPC4, 72 h) came to 3370 nM; on AKT1 WT it was 1250 nM; on AKT1 E17K, 221 nM.
The matching figures for `C=CC(=O)N1CCC(N[C@H]2CCc3cc(-n4c(-c5cccnc5N)nc5ccc(N6CCCC6)nc54)ccc32)CC1` [Example 170, 1-(4-{[(1S)-5-[2-(2-aminopyridin-3-yl)-5-(pyrrolidin-1-yl)imidazo[4,5-b]pyridin-3-yl]-2,3-dihydro-1H-inden-1-yl]amino}piperidin-1-yl)prop-2-en-1-one]: 160 nM, 114 nM and 12.5 nM.
The matching figures for `C=CC(=O)N1CCN(CC2CCc3cc(-n4c(-c5cccnc5N)nc5ccc(-n6cccn6)nc54)ccc32)C[C@H]1C` (single isomer, unassigned) [Example 292, 1-((R)-4-(((*)-5-(2-(2-aminopyridin-3-yl)-5-(1H-pyrazol-1-yl)-3H-imidazo[4,5-b]pyridin-3-yl)-2,3-dihydro-1H-inden-1-yl)methyl)-2-methylpiperazin-1-yl)prop-2-en-1-one]: 134 nM, 44.9 nM and 6.85 nM.

For the origin of these results see patent US12570655B2, “Cysteine covalent modifiers of AKT1 and uses thereof” (Terremoto Biosciences, Inc., priority 2023, dated 2026).
